Test results from patent publication US20260138962A1, “SYNTHESIS OF DERIVATIVES OF SIPH[…] THERAPEUTIC USE THEREOF” (priority 2022, published 2026).
Values after ≈ are worked out from the molar mass of the structure shown.

Key:
Test in all cases: microbe, parasite or virus in culture
Type in all cases: cell-based
SARS-CoV-2 Delta variant = settings: Severe acute respiratory syndrome coronavirus 2, Vero C1008
SARS-CoV-2 Beta variant = settings: Severe acute respiratory syndrome coronavirus 2, Vero C1008
[1] = tested on: SARS-CoV-2 Wuhan isolate (wild type); settings: Severe acute respiratory syndrome coronavirus 2, Vero C1008; positive control at 3.77 μg/ml; […]
[2] = positive control at 3.77 μg/ml, […]

CC1=C2C[C@@H]3[C@@H](C)C=CC(=O)[C@@]3(C)C[C@@]2(O)OC1=O [HLS, (4aR,5S,8aS,9aR)-9a-hydroxy-3,5,8a-trimethyl-4a,5,9,9a-tetrahydronaphtho[2,3-b]furan-2,8(4H,8aH)-dione]
IC50 (SARS-CoV-2 Delta variant; Delta strain, in vitro): 6.15 µg/mL (≈ 23.4 µM) | inhibition at 0.5 µg/mL (SARS-CoV-2 Delta variant; Delta, 0.5 μg/ml, Vero E6 cells): 0% | inhibition at 2 µg/mL (SARS-CoV-2 Delta variant; Delta, 2 μg/ml, Vero E6 cells): 25% | inhibition at 5 µg/mL (SARS-CoV-2 Delta variant; Delta, 5 μg/ml, Vero E6 cells): 50% | inhibition at 16 µg/mL (SARS-CoV-2 Delta variant; Delta, 16 μg/ml, Vero E6 cells): 75% | inhibition at 50 µg/mL (SARS-CoV-2 Delta variant; Delta, 50 μg/ml, Vero E6 cells): 100% | IC50 (SARS-CoV-2 Beta variant; Beta strain, in vitro): 8.93 µg/mL (≈ 34 µM) | inhibition at 0.5 µg/mL (SARS-CoV-2 Beta variant; Beta, 0.5 μg/ml, Vero E6 cells): 25% | inhibition at 2 µg/mL (SARS-CoV-2 Beta variant; Beta, 2 μg/ml, Vero E6 cells): 25% | inhibition at 5 µg/mL (SARS-CoV-2 Beta variant; Beta, 5 μg/ml, Vero E6 cells): 50% | inhibition at 16 µg/mL (SARS-CoV-2 Beta variant; Beta, 16 μg/ml, Vero E6 cells): 75% | inhibition at 50 µg/mL (SARS-CoV-2 Beta variant; Beta, 50 μg/ml, Vero E6 cells): 100%

CCC(CC)COC(=O)[C@H](C)N[P@](=O)(OC[C@H]1O[C@@](C#N)(c2ccc3c(N)ncnn23)[C@H](O)[C@@H]1O)Oc1ccccc1 [Remdesivir, reference compound]
inhibition at 3.77 µg/mL [1]: 100% | inhibition at 3.77 µg/mL (SARS-CoV-2 Delta variant; [2]): 100% | inhibition at 3.77 µg/mL (SARS-CoV-2 Beta variant; [2]): 100%
